The values that follow come from patent US10023592B2, “Bromodomain inhibitors” (Celgene Quanticel Research, Inc., priority 2013, dated 2018).

SMILES strings stand for the structures. Structures can show the parent of a compound that is named as a salt. Some results are limits rather than exact numbers.

The target in the assay is BRD4(BD1) (Homo sapiens (Human), UniProt O60885). The assay is described as follows: In vitro enzyme inhibition assay (BRD4 AlphaScreen). It is filed as binding. On the procedure: His-tagged BRD4 was cloned, expressed and purified to homogeneity. […] BRD4 binding and inhibition was assessed by monitoring the interaction of biotinylated H4-tetraacetyl peptide (AnaSpec, H4K5/8/12/16(Ac), biotin-labeled) with the target using the AlphaScreen technology (Life Technologies). […] After 20 min incubation at room temp, Alpha streptavidin donor beads and Nickel Chelate acceptor beads were added to a final concentration of 5 μg/mL.
The ability of the compounds disclosed herein to inhibit BRD4 activity was quantified and the respective IC50 value was determined.
On the technique in general: Bead proximity is the source of the signal in Alpha formats.

Where [1] appears, read: in vitro enzyme inhibition assay.

With `Cn1cc(-c2cc(N)cc(F)c2)c2ccccc2c1=O` [Example 25, 4-(3-amino-5-fluorophenyl)-2-methylisoquinolin-1-one hydrochloride], the IC50 (class symbols A/B/C) is 500 to 5000 nM.
Still for that read-out and setting: in the case of `CCN(CC)c1cc(-c2ccc(OC)c(NS(C)(=O)=O)c2)cn(C)c1=O` [Example 114, N-[5-[5-(diethylamino)-1-methyl-6-oxopyridin-3-yl]-2-methoxyphenyl]methanesulfonamide] it was 500 to 5000 nM.
`COc1cc(F)c(CS(C)(=O)=O)cc1-c1ccc(=O)n(C)c1` [Example 475, 5-[4-fluoro-2-methoxy-5-(methylsulfonylmethyl)phenyl]-1-methylpyridin-2-one] had a half-inhibitory concentration (IC50) under setting [1] of 500 to 5000 nM.
Molecule `CCCc1cnc(NS(=O)(=O)CC)nc1-c1ccc(=O)n(C)c1` [Example 357, N-[4-(1-methyl-6-oxopyridin-3-yl)-5-propylpyrimidin-2-yl]ethanesulfonamide] displayed a 50% inhibitory concentration (IC50) under setting [1] of less than 500 nM.
Molecule `CCS(=O)(=O)c1cccc(-c2cc(N)c(=O)n(C)c2)c1` [Example 108, 3-amino-5-(3-ethylsulfonylphenyl)-1-methylpyridin-2-one] yielded an IC50 (class symbols A/B/C) of more than 5000 nM.
Under setting [1], `CCS(=O)(=O)Nc1cc(-c2ccc(=O)n(C)c2)c(-c2ccccc2C)s1` [Example 432, N-[4-(1-methyl-6-oxopyridin-3-yl)-5-(2-methylphenyl)thiophen-2-yl]ethanesulfonamide] had an IC50 of more than 5000 nM.
The molecule `[2H]C([2H])([2H])n1cc(-c2cc(NS(=O)(=O)CC)ccc2Oc2ccc(F)cc2F)ccc1=O` [Example 141, N-{4-(2,4-difluorophenoxy)-3-[1-(^2H3)methyl-6-oxopyridin-3-yl]phenyl}ethanesulfonamide] showed a concentration for half-maximal inhibition (IC50) under setting [1] of less than 500 nM.
On to `Cn1cc(-c2nc(N3CCCS3(=O)=O)ncc2Oc2ccc(F)cc2F)c2ccccc2c1=O` [Example 171, 4-[5-(2,4-difluorophenoxy)-2-(1,1-dioxo-1,2-thiazolidin-2-yl)pyrimidin-4-yl]-2-methylisoquinolin-1-one], for which, under setting [1], the IC50 was less than 500 nM.
Regarding `Cn1cc(-c2cc(N)c(F)cc2F)c2ccccc2c1=O` [Example 24, 4-(5-amino-2,4-difluorophenyl)-2-methylisoquinolin-1-one hydrochloride], the IC50 (class symbols A/B/C) was 500 to 5000 nM.
`CCc1cnc(NS(=O)(=O)CC)nc1-c1cn(C)c(=O)c2ccccc12` [Example 300, N-[5-ethyl-4-(2-methyl-1-oxoisoquinolin-4-yl)pyrimidin-2-yl]ethanesulfonamide]: the concentration for half-maximal inhibition (IC50) under setting [1] is less than 500 nM.
`Cc1cc(-c2nc(S(C)(=O)=O)ncc2Oc2ccc(F)cc2F)cn(C(C)C)c1=O` [Example 510, 5-[5-(2,4-difluorophenoxy)-2-methylsulfonylpyrimidin-4-yl]-3-methyl-1-propan-2-ylpyridin-2-one] returned an IC50 under setting [1] of 500 to 5000 nM.
`COc1ccc(-c2cn(C)c(=O)c3cc(F)ccc23)cc1S(N)(=O)=O` [Example 64, 5-(7-fluoro-2-methyl-1-oxoisoquinolin-4-yl)-2-methoxybenzenesulfonamide] showed an IC50 (class symbols A/B/C) of 500 to 5000 nM.
For the molecule `Cn1cc(-c2cc(CS(C)(=O)=O)ccc2OCC(F)(F)F)cc(F)c1=O` [Example 421, 3-fluoro-1-methyl-5-[5-(methylsulfonylmethyl)-2-(2,2,2-trifluoroethoxy)phenyl]pyridin-2-one], the IC50 under setting [1] is less than 500 nM.
Under setting [1], `Cn1cc(-c2nc(S(C)(=O)=O)ncc2Oc2ccc(F)cc2F)c2ccccc2c1=O` [Example 151, 4-[5-(2,4-difluorophenoxy)-2-methylsulfonylpyrimidin-4-yl]-2-methylisoquinolin-1-one] yielded an IC50 of less than 500 nM.
With `Cn1cc(-c2ccn[nH]2)c2ccccc2c1=O` [Example 68, 2-methyl-4-(1H-pyrazol-5-yl)isoquinolin-1-one], the half-maximal inhibitory concentration (IC50) (class symbols A/B/C) was more than 5000 nM.
With `Cn1cc(-c2ccccc2F)c2ccccc2c1=O` [Example 3, 4-(2-fluorophenyl)-2-methylisoquinolin-1-one], the 50% inhibitory concentration (IC50) (class symbols A/B/C) is more than 5000 nM.
Turning to `Cn1cc(-c2cc(NS(C)(=O)=O)ccc2Oc2ccc(F)cc2F)cc(N2CCCC2)c1=O` [Example 281, N-[4-(2,4-difluorophenoxy)-3-(1-methyl-6-oxo-5-pyrrolidin-1-ylpyridin-3-yl)phenyl]methanesulfonamide], the IC50 under setting [1] is 500 to 5000 nM.
`CCNc1cc(-c2ccc(OC)c(NS(C)(=O)=O)c2)cn(C)c1=O` [Example 111, N-[5-[5-(ethylamino)-1-methyl-6-oxopyridin-3-yl]-2-methoxyphenyl]methanesulfonamide]: the half-maximal inhibitory concentration (IC50) (class symbols A/B/C) fell in the range of 500 to 5000 nM.
In the case of `Cc1cc(-c2cc(S(C)(=O)=O)ccc2OCC2CC2)cn(Cc2ccccc2)c1=O` [Example 485, 1-benzyl-5-[2-(cyclopropylmethoxy)-5-methylsulfonylphenyl]-3-methylpyridin-2-one], the half-inhibitory concentration (IC50) under setting [1] fell in the range of 500 to 5000 nM.
The same measure, in the same setting: in the case of `CCOc1ccc(S(C)(=O)=O)cc1-c1cn(C)c(=O)c2c1CCCC2` [Example 216, 4-(2-ethoxy-5-methylsulfonylphenyl)-2-methyl-5,6,7,8-tetrahydroisoquinolin-1-one] it was less than 500 nM; in that of `Cc1cc(-c2cc(OCc3ccc(F)cc3F)cc(S(C)(=O)=O)c2)cn(C)c1=O` [Example 335, 5-[3-[(2,4-difluorophenyl)methoxy]-5-methylsulfonylphenyl]-1,3-dimethylpyridin-2-one], less than 500 nM; in that of `CCS(=O)(=O)Cc1ccc(OCC(F)(F)F)c(-c2cc(C)c(=O)n(CCO)c2)c1` [Example 407, 5-[5-(ethylsulfonylmethyl)-2-(2,2,2-trifluoroethoxy)phenyl]-1-(2-hydroxyethyl)-3-methylpyridin-2-one], 500 to 5000 nM.
`Cc1cc(-c2cc(S(C)(=O)=O)cc3c2OCCO3)cn(C)c1=O` [Example 489, 1,3-dimethyl-5-(7-methylsulfonyl-2,3-dihydro-1,4-benzodioxin-5-yl)pyridin-2-one] registered a half-inhibitory concentration (IC50) under setting [1] of 500 to 5000 nM.
Molecule `Cn1cc(-c2cccc(S(=O)(=O)N3CCOCC3)c2)c2ccccc2c1=O` [Example 14, 2-methyl-4-(3-morpholin-4-yl-sulfonylphenyl) isoquinolin-1-one] had an IC50 (class symbols A/B/C) of 500 to 5000 nM.
As for `CCC1CCc2cc(NS(=O)(=O)CC)cc(-c3cn(C)c(=O)c4ccccc34)c2O1` (stereo not shown) [Example 491, N-[2-ethyl-8-(2-methyl-1-oxoisoquinolin-4-yl)-3,4-dihydro-2H-chromen-6-yl]ethanesulfonamide], the IC50 under setting [1] was less than 500 nM.
Consider `CCCC1Cc2cc(NS(=O)(=O)CC)cc(-c3cc(C)c(=O)n(C)c3)c2O1` (stereo not shown) [Example 495, N-[7-(1,5-dimethyl-6-oxopyridin-3-yl)-2-propyl-2,3-dihydro-1-benzofuran-5-yl] ethanesulfonamide], for which, under setting [1], the IC50 was less than 500 nM.
Where the note is “class symbols A/B/C”, `CCS(=O)(=O)Nc1cccc(-c2cn(C)c(=O)c3ccc(-c4ccccc4)cc23)c1` [Example 73, N-[3-(2-methyl-1-oxo-6-phenylisoquinolin-4-yl)phenyl]ethanesulfonamide] registered a half-maximal inhibitory concentration (IC50) of 500 to 5000 nM.
`Cn1cc(-c2ccco2)c2ccccc2c1=O` [Example 66, 4-(furan-2-yl)-2-methylisoquinolin-1-one]: the concentration for half-maximal inhibition (IC50) (class symbols A/B/C) was more than 5000 nM.
In the case of `CCS(=O)(=O)c1ccc(OCC2CC2)c(-c2cn(C)c(=O)c3cncnc23)c1` [Example 232, 8-[2-(cyclopropylmethoxy)-5-ethylsulfonylphenyl]-6-methylpyrido[4,3-d]pyrimidin-5-one], the half-inhibitory concentration (IC50) under setting [1] is less than 500 nM.
With `Cn1cc(-c2ccc(F)c(N)c2)c2ccccc2c1=O` [Example 26, 4-(3-amino-4-fluorophenyl)-2-methylisoquinolin-1-one hydrochloride], the half-maximal inhibitory concentration (IC50) (class symbols A/B/C) lay in the range of 500 to 5000 nM.
The same measure, in the same setting: the result for `Cc1cc(=O)n(C)cc1-c1cccc(NS(C)(=O)=O)c1` [Example 95, N-[3-(1,4-dimethyl-6-oxopyridin-3-yl)phenyl]methanesulfonamide] reads 500 to 5000 nM.
For the molecule `CCCc1ccc(S(C)(=O)=O)cc1-c1cn(C)c(=O)c2ccccc12` [Example 314, 2-methyl-4-(5-methylsulfonyl-2-propylphenyl)isoquinolin-1-one], the IC50 under setting [1] was less than 500 nM.
Under setting [1], `CCS(=O)(=O)Nc1cc(-c2cc(C)c(=O)n(C)c2)nc(Oc2ccc(F)cc2F)n1` [Example 347, N-[2-(2,4-difluorophenoxy)-6-(1,5-dimethyl-6-oxopyridin-3-yl)pyrimidin-4-yl]ethanesulfonamide] displayed a 50% inhibitory concentration (IC50) of 500 to 5000 nM.
The molecule `CCS(=O)(=O)Nc1cccc(-c2cc(C)c(=O)n(C)n2)c1` [Example 480, N-[3-(1,5-dimethyl-6-oxopyridazin-3-yl)phenyl]ethanesulfonamide] showed an IC50 under setting [1] of 500 to 5000 nM.
Same read-out and setting: the result for `Cc1cc(-c2cc(S(C)(=O)=O)ccc2OCC2CC2)cn(C2CCC2)c1=O` [Example 483, 1-cyclobutyl-5-[2-(cyclopropylmethoxy)-5-methylsulfonylphenyl]-3-methylpyridin-2-one] reads less than 500 nM.
In the case of `Cc1c(-c2cccc(NS(C)(=O)=O)c2)cn(C)c(=O)c1C` [Example 97, N-[3-(1,4,5-trimethyl-6-oxopyridin-3-yl)phenyl]methanesulfonamide], the IC50 (class symbols A/B/C) was in the range of 500 to 5000 nM.
On to `Cn1cc(-c2cc(CS(C)(=O)=O)ccc2OCC(F)(F)F)c2ocnc2c1=O` [Example 239, 5-methyl-7-[5-(methylsulfonylmethyl)-2-(2,2,2-trifluoroethoxy)phenyl]-[1,3]oxazolo[4,5-c]pyridin-4-one], for which the concentration for half-maximal inhibition (IC50) under setting [1] is less than 500 nM.
Under setting [1], `Cn1cc(-c2cc(S(C)(=O)=O)ccc2OCC2CCC2)ccc1=O` [Example 460, 5-[2-(cyclobutylmethoxy)-5-methylsulfonylphenyl]-1-methylpyridin-2-one] came in with an IC50 of less than 500 nM.
The same measure, in the same setting: in the case of `CCC1CCc2cc(NS(C)(=O)=O)cc(-c3cn(C)c(=O)c4ccccc34)c2O1` (stereo not shown) [Example 490, N-[2-ethyl-8-(2-methyl-1-oxoisoquinolin-4-yl)-3,4-dihydro-2H-chromen-6-yl] methanesulfonamide] it was less than 500 nM.
Under “class symbols A/B/C”, `CCS(=O)(=O)c1ccc(O)c(-c2cn(C)c(=O)c3ccc(-c4cnn(C)c4)cc23)c1` [Example 80, 4-(5-ethylsulfonyl-2-hydroxyphenyl)-2-methyl-6-(1-methylpyrazol-4-yl) isoquinolin-1-one] had an IC50 of less than 500 nM.

The term IC50 denotes the concentration that gives 50% inhibition.
